Results published in patent US6451999B2, “1-(3-aminoindazol-5-yl)-3-butyl-cyclic urea useful as a HIV protease inhibitor” (Bristol-Myers Squibb Pharma Company, priority 1996, dated 2002).
Values after ≈ are worked out from the molar mass of the structure shown.

Tests used:
[1] = test system: HIV-1 (RF); assay: HIV RNA assay: microplate based compound evaluation in HIV-1 infected MT-2 cells; assay type: cell-based; details: Human immunodeficiency virus 1, MT2, 72 h; HIV-1 (RF) infected MT-2 cells, 3 days of culture; virus dilution selected to standardize the inoculum; read-out: IC90 value (concentration of compound required to reduce the HIV RNA level by 90%)
Description: Plasmid pDAB 72 containing both gag and pol sequences of BH10 (bp 113-1816) cloned into PTZ 19R was prepared according to Erickson-Viitanen et al. AIDS Research and Human Retroviruses 1989, 5, 577. The plasmid was linearized with Bam HI prior to the generation of in vitro RNA transcripts using the Riboprobe Gemini system II kit (Promega) with T7 RNA polymerase. Synthesized RNA was purified by treatment with RNase free DNAse (Promega), phenol-chloroform extraction, and ethanol precipitation. RNA transcripts were dissolved in water, and stored at −70° C. The concentration of RNA was determined from the A260.
Biotinylated capture probes were purified by HPLC after synthesis on an Applied Biosystems (Foster City, Calif.) DNA synthesizer by addition of biotin to the 5′ terminal end of the oligonucleotide, using the biotin-phosphoramidite reagent of Cocuzza, Tet. Lett. 1989, 30, 6287. […]
MT-2 and MT-4 cells were maintained in RPMI 1640 supplemented with 5% fetal calf serum (FCS) for MT-2 cells or 10% FCS for MT-4 cells, 2 mM L-glutamine and 50 μg/mL gentamycin, all from Gibco. […] Infectious titers of HIV-1(RF) stocks were 1-3×10^7 PFU (plaque forming units) /mL as measured by plaque assay on MT-2 cells (see below). […]

Compound	melting point	IC90 [1]
CCCCN1C(=O)N(Cc2ccc3[nH]nc(N)c3c2)[C@H](Cc2ccccc2)[C@H](O)[C@@H](O)[C@H]1Cc1ccccc1 [Example 1, (4R,5S,6S,7R)-Hexahydro-1-[5-(3-aminoindazole)methyl]-3-butyl-5,6-dihydroxy-4,7-bis[phenylmethyl]-2H-1,3-diazapin-2-one]	129 to 131 °C	
Nc1ccn([C@H]2CC[C@@H](CO)O2)c(=O)n1 [ddC, dideoxycytidine]		0.2 µg/mL (≈ 0.947 µM)
